From patent publication US5486532A, “Benzospiroalkenes” (Adir et Compagnie, priority 1993, dated 1996)
Counter-ions that a name gives are not always drawn. Like-named read-outs stand apart in the source and are kept apart here.

Legend:
[1] = tested on: arterial pressure in amyelated rats; assay: In vivo study in amyelated rats, arterial pressure; design: species or system Sprague Dawley rats; settings: Rattus norvegicus, iv, tertatolol pretreated, no prazosin or yohimbine, read-out: C20 Control (concentration which increases the pressure by 20 mmHg)
Excerpt: (§1) Male Sprague Dawley rats (300-400 g) are anesthetized with ether. The trachea is cannulated, the spinal column is destroyed using a stainless-steel rod and the animal is 1. 5 immediately placed under artificial respiration. The vagus nerves are dissected. The carotid arteries are ligatured and a catheter is placed in one and serves to record the arterial pressure. Three other catheters are placed in the jugular veins and in the vein of the penis and serve for the injections. The temperature of the animals is maintained at 36° C. The animal is pretreated by an injection of tertatolol […]. The animal is also pretreated 10 minutes later with prazosin ([…]) or yohimbine (1 mg/kg) when it is desired to determine the alpha1 - or alpha2-adrenergic properties of the product. Ten minutes later, increasing cumulative doses of product are injected every 20 seconds. The variations in arterial pressure are detected using a Statham P23XL pressure cell and are recorded. The pressure values are expressed in mmHg. This experiment makes it possible to calculate the concentration which increases the pressure by 20 mmHg (C20) by non-linear regression according to the mass action law model of Michaelis and Menten as described above. The maximum effect obtained is subsequently convened to a percentage relative to the maximum effect induced by phenylephrine. The alpha1 - or alpha2-adrenergic components of the product are evaluated using the C20 ratio obtained in the presence of prazosin or yohimbine on the values obtained in the absence of these antagonists. In amyelated rats, the products of the invention produce hypertensions which are sensitive to prazosin and to yohimbine.

alpha1-adrenergic = assay: Amyelated rats, alpha1-adrenergic component (C20 ratio with prazosin); type: in vivo, Sprague Dawley rats; settings: pretreated with prazosin
Excerpt: as §1

alpha2-adrenergic = assay: Amyelated rats, alpha2-adrenergic component (C20 ratio with yohimbine); type: in vivo, Sprague Dawley rats; settings: pretreated with yohimbine (1 mg/kg)
Excerpt: as §1

[2] = tested on: loss of righting reflex induced by xylazine in rats; assay: Antagonism of the loss of righting reflex induced by xylazine in rats; type: in vivo, male Wistar rats; settings: Rattus norvegicus, sc, 1 h, read-out: Antagonism of the loss of righting reflex induced by xylazine ED50
Description: (§2) Animals and environment The animals used are male Wistar rats (IFFA CREDO). They weigh between 200 and 250 g at the time of the experiment. The rats live in an animal house, in cages, four to a cage, with free access to food and drinking water, for one week before being studied. 24 hours before the experiment, the rats are deprived of food. The rats are transferred into the laboratory a few hours before the experiment. The animal house and the laboratory are climatically controlled at a temperature of 21 1° C. and a hygrometry of 55 5%. The lighting cycle is 12 h/12 h with the light switched on from 7.0 a.m. to 7.0 p.m. The rats are only experimented on once.
(§3) The compounds are injected subcutaneously into the rats which are placed in individual cages. 30 minutes after the injection the effect of these products on the fighting reflex is observed and a score is attributed. Immediately after, the rats receive an intraperitoneal injection of xylazine at a dose of 40 mg/kg. 30 minutes after the injection of xylazine (=60 minutes after the injection of the compounds to be tested), a new righting reflex score is attributed. In order to evaluate the righting reflex, the rats are placed gently on their backs and then released. A score of 0 is attributed to an immediate and complete righting, a score of 1 to a righting without recovery of a normal position, a score of 2 to a righting attempt but in which the rat remains stretched out on its back and a score of 3 to a complete loss of the reorienting reflex.
In order to evaluate the effect of the compounds tested on the loss of the fighting reflex induced by xylazine, a score of 2 or less is considered as an antagonistic effect. The percentage of animals which have a score of 2 or less is calculated per dose, as is the ED50 (=dose at which 50% of the animals show an antagonistic effect). The ED50 are calculated according to Litchfield and Wilcoxon.
(§4) The products are dissolved in distilled water, or distilled water with a few drops of lactic acid in the case of solubilization difficulties. The pH of the solutions is then brought to 5 using sodium hydroxide solution. All the products are administered in a volume of 10 ml/kg.

[3] = tested on: loss of the righting reflex in rats; assay: Test of loss of the righting reflex in rats, induction (agonistic effect); type: in vivo, male Wistar rats; settings: for ED50: Rattus norvegicus, sc, 0.5 h, read-out: Induction of the loss of righting reflex ED50; for induction of a loss of the reorienting reflex (in words): rats
Description: as §2, §3
In order to evaluate the effect of the compounds tested on the loss of the righting reflex, a score of 1 or more is considered as an agonistic effect. The percentage of animals which have a score of 1 or more is calculated per dose, as is the ED50 (=dose at which 50% of the animals show an agonistic effect).
as §4

[4] = tested on: synthetic activity of noradrenaline in rat hippocampus; assay: Effect of α2-adrenergic ligands on the synthetic activity of noradrenaline in rat hippocampus (L-DOPA accumulation); type: in vivo, male Wistar rats; settings: 60 minutes, n = 4
Description: 200-220 g male Wistar rats Iffa Credo, Illskischen, France) are individually installed in cages with free access to food and drinking water. The laboratory temperature is 21 1° C. and the percent humidity is 60 5%. The day/night cycle is 12 hours (light switched on in the morning at 7.30).
The effects of the molecules on the rate of regeneration of noradrenaline is determined 60 minutes after their administration via the subcutaneous route. […] The animals are then decapitated, their brain is removed and the hippocampus is dissected. The hippocampus is subsequently homogenized in 500 1 of 0.1M HClO4 containing 0.5% of Na2 S2 O5 and 0.5% of disodium EDTA and centrifuged at 15000 g for 15 minutes at 4° C. In order to measure the amounts of L-dihydroxyphenylalanine (L-DOPA), the precursor of noradrenaline, present, the supernatants are diluted 20 times in the chromatography mobile phase and 100 1 are analyzed by high performance liquid chromatography with electrochemical detection (Waters M460 detector, potential of the working electrode:850 mV). The column (Hypersil ODS 5 m, C18, 150 4.6 mm, Spectra Physics) is thermostatted at 25° C. […] The flow rate is 1 ml/min. The amounts of L-DOPA are determined relative to an external calibration and are compared with the amount of protein present in the hippocampi. The proteins are quantified according to the method of Smith et at. […] The average amount of L-DOPA analyzed in the animals treated by the solvent is considered as the control value (100%). The amounts analyzed in the animals treated by the molecules are then expressed as a percentage relative to this control value.
Statistics The data obtained for the control animals and the treated animals are compared with a variance analysis (ANOVA), followed by a Dunnett test. The significance limit is set at p<0.05. The data are expressed as a mean standard deviation.
Compounds The injection are made subcutaneously in a volume of 1.0 ml/kg. The substances are dissolved in sterile water with, if necessary, a few drops of lactic acid and then readjusted to a pH which is as close as possible to neutrality with sodium hydroxide. […] The doses are expressed relative to their weight of free base.

saphena veins = assay: Contraction of isolated dog saphena veins; settings: Canis lupus familiaris
Description: (§5) The technique used is based on that described by Fowler et al. (J. Pharmacol. Exp. Ther., 229, 712-718, 1984). Male or female mongrel dogs of approximately 15-25 kg were used as organ sources. The animals are anesthetized with pentobarbital (30 mg/kg intravenously). The legs are incized and the blood vessels removed. They are placed in Krebs-Ringer liquid (118 mM NaCl; 25 mM NaHCO3; 10 mM Glucose; 4.7 mM KCl; 1.25 mM CaCl2; 1.19 mM MgSO4; 1.14 mM KH2 PO4) at room temperature and under a sparge of carbogen (95% O2, 5% CO2). These blood vessels are then carefully freed of their fat and then cut into rings 2 mm wide and mounted under a base tension of 4 g (femoral arteries) or 1 g (saphena veins) in tanks thermostated at 37° C. containing Krebs-Ringer liquid and constantly sparged with carbogen. A lower hook constitutes the fixed point, whereas the upper hook is connected to an isometric force sensor. The variations in tension are digitized, stored on disk and processed by an information technology system. After mounting, the organs are left to rest for 90 minutes, with rinses being carried out every 30 min. After readjustment of the base tension, a contraction is induced by a single dose of KCl (100 mM). After stabilization, washing and returning to the base line, a contraction is provoqued by a single dose of phenylephrine (submaximal concentration) in order to regulate the following contractions. After washing and returning to the baseline, an effect/concentration curve is produced by addition of cumulative doses of agonist (the space between the doses is a semi-log). This experiment makes it possible to calculate the 50% effective concentration (EC50) in the following way: the tension values are first of all converted to percentages relative to the maximum effect induced by 100 mM of KCl. This EC50 is determined by non-linear regression by the SIMPLEX method (M. S. Caceci, Byte, 340-362, 1984), calculated according to the mass action law model of L. Michaelis and M. L. Menten (Biochem. Zeitschrift, 49, 333-369, 1913).
(§6) E=(Emax*C^n)(EC^n +C^n) with E=effect; Emax=maximum effect; C=concentration; EC=EC50; n=Hill number
(§7) The products of the invention contract dog arteries and veins. The maximum for these contractions approaches that obtained with KCl.

dog femoral arteries = assay: Contraction of isolated dog femoral arteries; settings: Canis lupus familiaris
Description: as §5, §6, §7

[5] = s.c., 60 minutes after injection, xylazine 40 mg/kg i.p., score of 2 or less
[6] = s.c., 30 minutes after injection, score of 1 or more
[7] = 30 minutes after xylazine 40 mg/kg i.p., distilled water pretreatment, N=10

## Oc1cccc2c1CC1(CC2)CNC=N1 (stereo not shown) [Example 5, Spiro[(1,3-diazacyclopent-1-ene)-5:2'-(8'-hydroxy-1',2',3', 4'-tetrahydronaphthalene)]fumarate]
[1]
  ED (20 mmHg): 0.0048 mg/kg
alpha1-adrenergic
  Ratio treated C20 / control C20, Prazosin: 0.9
alpha2-adrenergic
  Ratio treated C20 / control C20, Yohimbine: 12.0

## Brc1c(NC2=NCCN2)ccc2nccnc12 [UK 14,304, reference compound]
[2]
  ED50: > 10 mg/kg
[3]
  ED50: 0.24 mg/kg
  induction of a loss of the reorienting reflex (in words): behave as agonists by inducing a loss of the reorienting reflex
[4]; dose 0.01 mg/kg s.c.
  Accumulation of L-DOPA: 98 ± 13 Control percentages
[4]; dose 0.04 mg/kg s.c.
  Accumulation of L-DOPA: 70 ± 2 Control percentages
[4]; dose 0.16 mg/kg s.c.
  Accumulation of L-DOPA: 40 ± 3 Control percentages
[4]; dose 0.63 mg/kg s.c.
  Accumulation of L-DOPA: 48 ± 7 Control percentages

## c1ccc2c(c1)OCC(C1=NCCN1)O2 (stereo not shown) [IDAZOXAN, idazoxan]
[2]; [5]
  ED50: 0.24 mg/kg
[3]; [6]
  ED50: > 10 mg/kg
[3]
  induction of a loss of the reorienting reflex (in words): inactiv

## Cc1cccc(C)c1N=C1NCCCS1 [XYLAZINE, xylazine]
[3]; [7]
  control rats that had lost the righting reflex (in words): all the control rats (N=10) had lost the fighting reflex
  righting reflex score, mean±SD: 3±0
[3]
  ED50: 6.1 mg/kg
  induction of a loss of the reorienting reflex (in words): behave as agonists by inducing a loss of the reorienting reflex

## COc1cccc2c1CC1(CC2)CNC=N1 (stereo not shown) [Example 3, Spiro[(1,3-diazacyclopent-1-ene)-5:2'-(8'-methoxy-1',2',3', 4'-tetrahydronaphthalene)]fumarate]
Saphena veins; dog saphena vein rings, cumulative doses
  EC50: 400 nM
Saphena veins; maximum contraction relative to 100 mM KCl, dog saphena vein, read-out: VEIN Max
  Emax: 100%
Dog femoral arteries; dog femoral artery rings, cumulative doses
  EC50: 3000 nM
Dog femoral arteries; maximum contraction relative to 100 mM KCl, dog femoral artery, read-out: ARTERY Max
  Emax: 94%

## Cc1ccc2c(c1C)CC1(CC2)COC(N)=N1 (stereo not shown) [Example 11, Spiro[(1-oxa-2-amino-3-azacyciopent-2-ene)-4:2'-(7-8'-dimethyl-1', 2',3',4'-tetrahydronaphthalene)]hydrochloride]
[2]; [5]
  ED50: > 2.5 mg/kg
[3]; [6]
  ED50: 1.14 mg/kg
[3]
  induction of a loss of the reorienting reflex (in words): behave as agonists by inducing a loss of the reorienting reflex

## NC1=NC2(CCc3cccc(Cl)c3C2)CO1 (single isomer, unassigned) [Example 13, Spiro[(1-oxa-2-amino-3-azacyclopent-2-ene)-4:2'-(8'-chloro-1',2', 3',4'-tetrahydronaphthalene)]hydrochloride, βisomer]
[2]; [5]
  ED50: > 0.63 mg/kg
[3]; [6]
  ED50: 0.15 mg/kg
[3]
  induction of a loss of the reorienting reflex (in words): behave as agonists by inducing a loss of the reorienting reflex

## NC1=NC2(CCc3cccc(Cl)c3C2)CO1 (stereo not shown) [Example 9, Spiro[(1-oxa-2-amino-3-azacyclopent-2-ene)-4:2'-(8'-chloro-1', 2',3',4'-tetrahydronaphthalene)]hydrochloride]
[2]; [5]
  ED50: > 0.63 mg/kg
[3]; [6]
  ED50: 0.17 mg/kg
[3]
  induction of a loss of the reorienting reflex (in words): behave as agonists by inducing a loss of the reorienting reflex
[4]; dose 0.01 mg/kg s.c.
  Accumulation of L-DOPA: 51 ± 7 Control percentages
[4]; dose 0.04 mg/kg s.c.
  Accumulation of L-DOPA: 50 ± 7 Control percentages
[4]; dose 0.16 mg/kg s.c.
  Accumulation of L-DOPA: 44 ± 2 Control percentages
[4]; dose 0.63 mg/kg s.c.
  Accumulation of L-DOPA: 34 ± 2 Control percentages
